“And” between values parts separate entries of the source, which are not always exact repeats. Equal entries are not always repeated.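 48-hour exposure; five concentrations; linearly interpolated endpoints. GI50: concentration for 50% inhibition of growth. TGI: total growth inhibition.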
Assays:
Assay in all cases: growth of human tumour cells (NCI), 48 h
CAKI-1 renal = tested on: CAKI-1 renal
SN12C renal = tested on: SN12C renal
NCI-H226 lung = tested on: NCI-H226 lung
SK-MEL-2 melanoma = tested on: SK-MEL-2 melanoma
NCI-H522 lung = tested on: NCI-H522 lung
HOP-92 NSCLC = tested on: HOP-92 NSCLC
OVCAR-5 ovarian = tested on: OVCAR-5 ovarian
OVCAR-3 ovarian = tested on: OVCAR-3 ovarian
M14 melanoma = tested on: M14 melanoma
RXF 393 renal = tested on: RXF 393 renal

| SMILES | TGI (CAKI-1 renal) | TGI (SN12C renal) | TGI (NCI-H226 lung) | TGI (SK-MEL-2 melanoma) | TGI (NCI-H522 lung) | TGI (HOP-92 NSCLC) | TGI (OVCAR-5 ovarian) | TGI (OVCAR-3 ovarian) | TGI (M14 melanoma) | GI50 (CAKI-1 renal) | GI50 (SN12C renal) | GI50 (SK-MEL-2 melanoma) | GI50 (NCI-H522 lung) | GI50 (RXF 393 renal) | TGI (RXF 393 renal) | GI50 (HOP-92 NSCLC) | GI50 (OVCAR-5 ovarian) | GI50 (OVCAR-3 ovarian) | GI50 (M14 melanoma) | GI50 (NCI-H226 lung) |
| --- | --- | --- | --- | --- | --- | --- | --- | --- | --- | --- | --- | --- | --- | --- | --- | --- | --- | --- | --- | --- |
| COc1ccc(/C=C/c2cc(OC)c(O[Si](C)(C)C(C)(C)C)c(OC)c2)cc1 | > 100 µM | > 100 µM | > 100 µM | > 100 µM | > 100 µM | > 100 µM | > 100 µM | > 100 µM | > 100 µM |  |  |  |  |  |  |  |  |  |  |  |
| COC1=C(OC)C(=O)C(/C=C(\C)C(=O)O)=C(C)C1=O | > 100 µM | > 100 µM |  | > 100 µM | > 100 µM | > 100 µM | > 100 µM | > 100 µM | > 100 µM | > 100 µM | > 100 µM | > 100 µM | > 100000 nM | > 100 µM | > 100 µM | > 100000 nM | > 100 µM | > 100 µM | > 100 µM |  |
| C/C(=N\NC(=O)CC(=O)Nc1ccc(C)cc1)c1cc2ccccc2oc1=O |  | > 100 µM | > 100 µM | > 100 µM | > 100 µM |  |  | > 100 µM | > 100 µM |  |  |  |  |  | > 100 µM |  |  |  |  |  |
| COc1ccc(/C=C2\N=C(c3ccccc3)OC2=O)c(OCc2ccccc2)c1 | > 100 µM | > 100 µM | > 100 µM |  | 67.2 µM |  | > 100 µM | 48.4 µM | > 100 µM |  |  |  |  |  |  |  |  |  |  |  |
| c1cncc(CNc2ccccc2-c2nnc(Nc3ccc4c(c3)OCO4)o2)c1 | > 100 µM | > 100 µM |  | 91.9 µM | 0.0709 µM | 28.9 µM | > 100 µM | 0.0866 µM | > 100 µM | 0.0551 µM | 0.0994 µM | 0.052 µM | 24.7 nM |  |  | 90.4 nM | 0.347 µM | 0.0303 µM | 0.056 µM |  |
| C=C1CC[C@@H]2C(C)(C)[C@@H](O)CC[C@@]2(C)[C@@H]1COc1ccc2ccc(=O)oc2c1 | 55.6 µM | 30.8 µM |  | 32.8 µM | 36.1 µM | 24.3 µM | 39.9 µM | 29.1 µM | 27.2 µM | 13.4 µM | 14.1 µM | 15.5 µM | 13100 nM | 7.41 µM | 21.9 µM | 8620 nM | 18.7 µM | 13 µM | 12.5 µM |  |
| COc1cccc(Nc2nc(NNC(=O)Cc3ccccc3)nc(NNC(=O)c3ccncc3)n2)c1 | > 100 µM | > 100 µM | > 100 µM | > 100 µM | > 100 µM |  | > 100 µM | > 100 µM | > 100 µM | > 100 µM | > 100 µM |  |  |  | > 100 µM |  |  |  |  |  |
| Nc1nc(N)c2cc(CNc3ccc(Cl)c(Cl)c3)ccc2n1 | 2.54 µM | 2.12 µM | 3.21 µM | 3.01 µM | 2.01 µM |  | 2.05 µM | 2.29 µM | 1.7 µM | 1.22 µM | 0.732 µM | 1.52 µM | 567 nM | 0.748 µM | 2.18 µM |  | 0.756 µM | 1.1 µM | 0.13 µM | 1.58 µM |
| N=C(N)n1ncc(Cl)c(Cl)c1=O | 3.31 µM | 8.44 µM | 18.3 µM | 6.93 µM | 3.43 µM | 4.42 µM | 30.7 µM | 3.31 µM | 4.03 µM |  |  |  |  |  |  |  |  |  |  |  |
| CCOC(=O)CC(=O)ON(C)C(=O)Cc1ccccc1 | > 100 µM | > 100 µM | > 100 µM | > 100 µM | > 100 µM |  | > 100 µM | > 100 µM | > 100 µM |  |  |  |  |  |  |  |  |  |  |  |
| Cc1ccc2nc3c(Cl)cc(=O)cc-3sc2c1 | 71.1 µM |  | 79.1 µM |  | 39 µM | 36.7 µM |  | 10.6 µM | 60.5 µM |  |  |  |  |  |  |  |  |  |  |  |
| O=C(Nc1cccc(Cl)c1)Nc1cccc(Cl)c1 |  | > 100 µM | > 100 µM | > 100 µM | > 100 µM | > 100 µM | > 100 µM | > 100 µM | > 100 µM |  | > 100 µM | > 21.5 µM | 2040 nM | 24.1 µM | > 92.8 µM | 2110 nM | > 100 µM | 2.92 µM | > 100 µM | > 100 µM |
| COc1ccc(Nc2c3ccccc3nc3c2c2ccccc2n3C)cc1 | > 100 µM | > 100 µM | > 100 µM | > 100 µM | > 100 µM |  | > 100 µM | > 100 µM |  | 30.7 µM | 58.6 µM | 57.6 µM | 78300 nM | 64.9 µM | > 100 µM |  | > 100 µM | 23.5 µM |  | 27.6 µM |
| COc1ccc(/C=C/C(=O)c2sc(N)nc2C)cc1 | > 100 µM | > 100 µM |  | > 100 µM | > 100 µM | > 100 µM | > 100 µM | > 100 µM |  |  |  |  |  |  | > 100 µM |  |  |  |  |  |
| N/C(=N\O)c1ncc(-c2ccc(C(F)(F)F)cc2)c(NC2CCCCCC2)n1 | 8.1 µM | 14.5 µM | 26.8 µM |  | 7.69 µM |  | 19.3 µM | 15.2 µM | 13.9 µM | 5.71 µM and 1.69 µM | 5.79 µM and 3.05 µM |  | 1920 nM | 2.74 µM | 11.6 µM |  | 4.51 µM | 8.8 µM and 3.74 µM | 9.68 µM and 3.24 µM | 4.24 µM |
| CCSC1(SCC)CCN(C=NC(C)(C)C)C1 | > 100 µM | > 100 µM | > 100 µM | > 100 µM | > 100 µM |  | > 100 µM | > 100 µM | > 100 µM |  |  |  |  |  | > 100 µM |  |  |  |  |  |
| COc1ccc(CN2c3ccccc3Sc3ccccc32)cc1F | > 100 µM | > 100 µM | > 100 µM | > 100 µM | 0.804 µM | > 38.9 µM | > 100 µM | 2.04 µM | > 100 µM | 0.399 µM | 1.13 µM | 0.476 µM | 266 nM |  |  | 1250 nM | > 30.4 µM | 0.312 µM | 0.365 µM | > 47.1 µM |
